Reference: the NIST ThermoML archive (doi:10.1021/acs.jced.5b00369)

Assay: relative permittivity at zero frequency (dimensionless); xn = mol fraction of the nth substance listed
Details: 101 kPa, Liquid, two-terminal dielectric cell

CC[N+](=O)[O-] [nitroethane] + Cc1ccc(C)cc1
298.15 K
Details	relative permittivity at zero frequency
x1 = 0.001685	2.2782
x1 = 0.009202	2.35917
x1 = 0.01833	2.45822
x1 = 0.02729	2.55599
x1 = 0.03608	2.65295
x1 = 0.04032	2.69936
x1 = 0.05043	2.81296
x1 = 0.05899	2.91009
x1 = 0.0674	3.00647
x1 = 0.07566	3.10223

CC[N+](=O)[O-] [nitroethane] + ClC(Cl)(Cl)Cl
298.15 K
Details	relative permittivity at zero frequency
x1 = 0.003529	2.27902
x1 = 0.00724	2.3313
x1 = 0.01443	2.4321
x1 = 0.02153	2.53048
x1 = 0.02851	2.62767
x1 = 0.0311	2.6639
x1 = 0.03397	2.7038
x1 = 0.04093	2.80121
x1 = 0.04779	2.89785
x1 = 0.05456	2.9938

C[N+](=O)[O-] [nitromethane] + c1ccccc1
Details	relative permittivity at zero frequency
298.15 K, x1 = 0.000817	2.28834
298.15 K, x1 = 0.001228	2.294
298.15 K, x1 = 0.001638	2.29956
298.15 K, x1 = 0.002045	2.30518
298.15 K, x1 = 0.00245	2.31071
298.15 K, x1 = 0.003332	2.32281
298.15 K, x1 = 0.003559	2.32593
298.15 K, x1 = 0.004459	2.33824
298.15 K, x1 = 0.005656	2.35464
298.15 K, x1 = 0.006833	2.37085
298.15 K, x1 = 0.007322	2.37753
298.15 K, x1 = 0.007982	2.38639
298.15 K, x1 = 0.01242	2.44757
298.15 K, x1 = 0.01595	2.49623
298.15 K, x1 = 0.02031	2.55663
298.15 K, x1 = 0.02465	2.61628
298.15 K, x1 = 0.0332	2.7354
298.15 K, x1 = 0.04458	2.89495
298.15 K, x1 = 0.05494	3.03914
298.15 K, x1 = 0.06641	3.20367
298.15 K, x1 = 0.08012	3.40373
318.15 K, x1 = 0.000437	2.19342
318.15 K, x1 = 0.0008868	2.19856
318.15 K, x1 = 0.001333	2.20368
318.15 K, x1 = 0.001778	2.20876
318.15 K, x1 = 0.002219	2.21383
318.15 K, x1 = 0.002658	2.2188
318.15 K, x1 = 0.003857	2.23245
318.15 K, x1 = 0.004835	2.24352
318.15 K, x1 = 0.006131	2.25821
318.15 K, x1 = 0.007631	2.27516
318.15 K, x1 = 0.009325	2.29411
318.15 K, x1 = 0.01132	2.31664
318.15 K, x1 = 0.01305	2.33622
318.15 K, x1 = 0.0149	2.35704
318.15 K, x1 = 0.01628	2.37368
318.15 K, x1 = 0.02047	2.42114
318.15 K, x1 = 0.02519	2.47484
318.15 K, x1 = 0.03005	2.53001
318.15 K, x1 = 0.0345	2.58032
318.15 K, x1 = 0.04273	2.67386
318.15 K, x1 = 0.05416	2.80502
318.15 K, x1 = 0.06683	2.9527
318.15 K, x1 = 0.07816	3.08644
318.15 K, x1 = 0.09171	3.24999
